These results are taken from PubChem BioAssay AID248 (DTP/NCI, 2004).

In this assay the test system is L1210 leukemia ip in BDF1 mice, survival T/C. Kind of assay: NCI In Vivo Anticancer Drug Screen. Data for tumor model L1210 Leukemia (intraperitoneal) in B6D2F1 (BDF1) mice. The following applies: endpoint: mean survival time, higher = longer survival. The essentials:
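Mice bearing the transplanted tumor received compound or vehicle. Survival of the treated group was divided by that of the vehicle-treated control group to give the ratio.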

[1] abbreviates: dose: 100.0 mg/kg/injection, schedule: Q01DX001 (ip), vehicle: carboxymethylcellulose (CMC).
The mark [2] stands for this setting: dose: 200.0 mg/kg/injection, schedule: Q01DX001 (ip), vehicle: carboxymethylcellulose (CMC).
[3] abbreviates: dose: 400.0 mg/kg/injection, schedule: Q01DX001 (ip), vehicle: carboxymethylcellulose (CMC).
Setting [4] is: dose: 100.0 mg/kg/injection, schedule: Q04DX003 (ip), vehicle: saline.
[5] abbreviates: dose: 200.0 mg/kg/injection, schedule: Q04DX003 (ip), vehicle: saline.
[6] abbreviates: dose: 400.0 mg/kg/injection, schedule: Q04DX003 (ip), vehicle: saline.
The mark [7] stands for this setting: dose: 100.0 mg/kg/injection, schedule: Q04DX003 (ip), vehicle: saline with Tween-80.
Setting [8] is: dose: 200.0 mg/kg/injection, schedule: Q04DX003 (ip), vehicle: saline with Tween-80.
Setting [9] is: dose: 400.0 mg/kg/injection, schedule: Q04DX003 (ip), vehicle: saline with Tween-80.
Setting [10] is: dose: 200.0 mg/kg/injection, schedule: Q01DX009 (ip), vehicle: saline.
Setting [11] is: dose: 100.0 mg/kg/injection, schedule: Q01DX009 (ip), vehicle: Klucel (hydroxypropylcellulose) (HPC).
Setting [12] is: dose: 100.0 mg/kg/injection, schedule: Q04DX003 (ip), vehicle: Klucel (hydroxypropylcellulose) (HPC).
[13] abbreviates: dose: 200.0 mg/kg/injection, schedule: Q01DX009 (ip), vehicle: Klucel (hydroxypropylcellulose) (HPC).
Setting [14] is: dose: 200.0 mg/kg/injection, schedule: Q04DX003 (ip), vehicle: Klucel (hydroxypropylcellulose) (HPC).
Where [15] appears, read: dose: 400.0 mg/kg/injection, schedule: Q01DX009 (ip), vehicle: Klucel (hydroxypropylcellulose) (HPC).
Setting [16] is: dose: 400.0 mg/kg/injection, schedule: Q04DX003 (ip), vehicle: Klucel (hydroxypropylcellulose) (HPC).
Where [17] appears, read: dose: 100.0 mg/kg/injection, schedule: Q01DX001 (ip), vehicle: Klucel (hydroxypropylcellulose) (HPC).
[18] abbreviates: dose: 100.0 mg/kg/injection, schedule: Q04DX002 (ip), vehicle: Klucel (hydroxypropylcellulose) (HPC).
The mark [19] stands for this setting: dose: 200.0 mg/kg/injection, schedule: Q01DX001 (ip), vehicle: Klucel (hydroxypropylcellulose) (HPC).
Where [20] appears, read: dose: 200.0 mg/kg/injection, schedule: Q04DX002 (ip), vehicle: Klucel (hydroxypropylcellulose) (HPC).
Where [21] appears, read: dose: 400.0 mg/kg/injection, schedule: Q01DX001 (ip), vehicle: Klucel (hydroxypropylcellulose) (HPC).
Where [22] appears, read: dose: 400.0 mg/kg/injection, schedule: Q04DX002 (ip), vehicle: Klucel (hydroxypropylcellulose) (HPC).

“And” between values parts separate entries of the source, which are not always exact repeats. Equal values may be shown once. Toxic doses and inconclusive results are not listed.

`O=c1c2ccccc2nc2sc3ccccc3n12`: the T/C by setting is: (dose: 100.0 mg/kg/injection, schedule: Q01DX009 (ip), vehicle: other) 93 % of control; (dose: 200.0 mg/kg/injection, schedule: Q01DX009 (ip), vehicle: other) 107 % of control; (dose: 400.0 mg/kg/injection, schedule: Q01DX009 (ip), vehicle: other) 103 % of control.

Consider `CSc1nnc2sc(C)nn12`, for which the T/C under setting [1] was 104 % of control, the T/C under setting [2] is 104 % of control and the T/C under setting [3] was 102 % of control.

With `O=C(OCc1ccccc1)c1ccc(OCc2ccccc2)cc1`, the T/C is, setting by setting: under setting [4], 94 % of control; under setting [5], 100 % of control; under setting [6], 96 % of control.

As for `COc1cc(CC(=O)O)c(OC)cc1CC(=O)O`, the T/C was 101 % of control (dose: 100.0 mg/kg/injection, schedule: Q01DX009 (ip), vehicle: saline with Tween-80); 93 % of control under setting [7]; 99 % of control (dose: 200.0 mg/kg/injection, schedule: Q01DX009 (ip), vehicle: saline with Tween-80); 96 % of control under setting [8]; 94 % of control (dose: 400.0 mg/kg/injection, schedule: Q01DX009 (ip), vehicle: saline with Tween-80); 94 % of control under setting [9].

Take `N\C([S-])=N/N=C\C(=N/N=C(\N)[S-])C(O)C(O)C(O)CO.[Pt+2]` (stereo not drawn): the T/C reads like this: (dose: 50.0 mg/kg/injection, schedule: Q01DX009 (ip), vehicle: saline) 91 % of control; under setting [7], 92 % of control; under setting [10], 100 % of control; under setting [8], 89 % of control; under setting [9], 96 % of control.

As for `CC(C)(C)C(=O)CC(=O)C(C)(C)C.CC(C)(C)C(=O)CC(=O)C(C)(C)C.[Ni]`, the T/C runs as follows: (dose: 10.0 mg/kg/injection, schedule: Q04DX003 (ip), vehicle: saline) 100 % of control; (dose: 20.0 mg/kg/injection, schedule: Q04DX003 (ip), vehicle: saline) 94 % of control; (dose: 40.0 mg/kg/injection, schedule: Q04DX003 (ip), vehicle: saline) 117 % of control.

`[O-]/[N+](=C\C=C\c1ccccc1)c1ccccc1`: the T/C by setting is: under setting [11], 100 % of control; under setting [12], 103 % of control; under setting [13], 90 % of control; under setting [14], 95 % of control; under setting [15], 89 % of control; under setting [16], 86 % of control.

For `COc1ccc2c(c1C)OC(C)C2=O` (stereo not drawn), the T/C is 93 % of control under setting [11]; 101 % of control under setting [12]; 92 % of control under setting [13]; 104 % of control under setting [14]; 104 % of control under setting [15]; 97 % of control under setting [16].

Regarding `C1CCC(SSC2CCCC2)C1`, the T/C runs as follows: under setting [7], 89 % of control; under setting [8], 92 % of control; under setting [9], 92 % of control.

As to `Cc1cn(C2CC(O)C(CO)O2)c(=O)[nH]c1=O` (stereo not drawn), the T/C (dose: 50.0 mg/kg/injection, schedule: Q03HX024 (ip), vehicle: saline) is 100 % of control; the T/C (dose: 100.0 mg/kg/injection, schedule: Q03HX024 (ip), vehicle: saline) was 100 % of control; the T/C (dose: 200.0 mg/kg/injection, schedule: Q03HX024 (ip), vehicle: saline) was 98 % of control; the T/C (dose: 400.0 mg/kg/injection, schedule: Q03HX024 (ip), vehicle: saline) was 100 % of control.

With `CC(C)C(=O)Nc1ccc([N+](=O)[O-])c(C(F)(F)F)c1`, the T/C is 102 % of control under setting [17]; 93 % of control and 109 % of control under setting [11]; 105 % of control (dose: 100.0 mg/kg/injection, schedule: Q01DX009 (ip), vehicle: saline); 97 % of control and 92 % of control under setting [18]; 100 % of control under setting [12]; 108 % of control under setting [4]. Moreover, the T/C is, setting by setting: under setting [19], 102 % of control; under setting [13], 100 % of control and 103 % of control; under setting [10], 92 % of control; under setting [20], 100 % of control and 102 % of control; under setting [14], 109 % of control; under setting [5], 101 % of control. Moreover, the T/C reads like this: under setting [21], 110 % of control; under setting [22], 100 % of control and 113 % of control; under setting [16], 92 % of control; under setting [6], 88 % of control.

Turning to `O=S(Cc1ccccc1)c1ccccc1` (stereo not drawn), the T/C is 115 % of control (dose: 75.0 mg/kg/injection, schedule: Q04DX002 (ip), vehicle: Klucel (hydroxypropylcellulose) (HPC)); 100 % of control (dose: 150.0 mg/kg/injection, schedule: Q04DX002 (ip), vehicle: Klucel (hydroxypropylcellulose) (HPC)); 93 % of control (dose: 300.0 mg/kg/injection, schedule: Q04DX002 (ip), vehicle: Klucel (hydroxypropylcellulose) (HPC)).

Consider `CCCCCC(C)NC(=O)N(CCCl)N=O` (stereo not drawn) (tested in a mixture with another compound), for which the T/C is 109 % of control (dose: 12.0 mg/kg/injection, schedule: Q01DX001 (ip), vehicle: saline with Tween-80); 116 % of control (dose: 18.0 mg/kg/injection, schedule: Q01DX001 (ip), vehicle: saline with Tween-80); 169 % of control (dose: 27.0 mg/kg/injection, schedule: Q01DX001 (ip), vehicle: saline with Tween-80); 151 % of control (dose: 40.0 mg/kg/injection, schedule: Q01DX001 (ip), vehicle: saline with Tween-80); 200 % of control (dose: 60.0 mg/kg/injection, schedule: Q01DX001 (ip), vehicle: saline with Tween-80); 210 % of control (dose: 90.0 mg/kg/injection, schedule: Q01DX001 (ip), vehicle: saline with Tween-80). Besides, the T/C (dose: 133.0 mg/kg/injection, schedule: Q01DX001 (ip), vehicle: saline with Tween-80) is 88 % of control.

Take `CCCCN(CCCC)C(=N)C(=N)N(CCCC)CCCC`: the T/C is 100 % of control (dose: 50.0 mg/kg/injection, schedule: Q04DX002 (ip), vehicle: saline with Tween-80) and 100 % of control (dose: 100.0 mg/kg/injection, schedule: Q04DX002 (ip), vehicle: saline with Tween-80).

Regarding `CCOC(=O)Cn1c(=O)cc(C=O)c2ccccc21`, the T/C is, setting by setting: under setting [1], 91 % of control; under setting [2], 91 % of control; under setting [3], 89 % of control.

Regarding `Cc1ccc(NC(=O)NCCCl)cc1NC(=O)NCCCl`, the T/C reads like this: (dose: 50.0 mg/kg/injection, schedule: Q01DX009 (ip), vehicle: Klucel (hydroxypropylcellulose) (HPC)) 106 % of control; under setting [11], 97 % of control; under setting [12], 94 % of control; under setting [13], 108 % of control; under setting [14], 95 % of control.

`Nc1nc(=O)n(CCCOc2ccc(NC(=O)Nc3cccc(S(=O)(=O)F)c3)cc2)cc1-c1ccc(Cl)c(Cl)c1`: the T/C (dose: 50.0 mg/kg/injection, schedule: Q01DX001 (ip), vehicle: saline with Tween-80) was 98 % of control; the T/C (dose: 100.0 mg/kg/injection, schedule: Q01DX001 (ip), vehicle: saline with Tween-80) is 98 % of control; the T/C (dose: 200.0 mg/kg/injection, schedule: Q01DX001 (ip), vehicle: saline with Tween-80) is 95 % of control.

Take `CCCCCCCCCCCCCCCCS(=O)(=O)N/N=C/c1ccc2c(c1)OCO2`: the T/C is 101 % of control under setting [1], 98 % of control under setting [2] and 104 % of control under setting [3].

Consider `CC(C)(C)C1=CC(=O)C(Br)=C(N2C3C4CCC(C4)C32)C1=O` (stereo not drawn), for which the T/C under setting [17] is 110 % of control, the T/C under setting [19] was 96 % of control and the T/C under setting [21] was 94 % of control.

Consider `Cc1ccc(S(=O)(=O)NC(=O)O/N=C/c2ccccn2)cc1`, for which the T/C runs as follows: under setting [7], 98 % of control; under setting [8], 101 % of control; under setting [9], 104 % of control.

On to `O=[N+]([O-])c1cc(S(=O)(=O)c2ccc(S)c([N+](=O)[O-])c2)ccc1S`, for which the T/C under setting [18] was 89 % of control, the T/C under setting [20] was 92 % of control and the T/C under setting [22] was 92 % of control.
